Entries after “also recorded” stand apart in the source; their conditions may differ.
Columns and labels:
mPTPB = target: T1, mPTPB (Mycobacterium tuberculosis, UniProt I6WXK4); test: biochemical; assay type: biochemical
T1 construct: The full-length mPTPB with a N-terminal His6-tag was expressed and purified; His6 (N); made in house; host or cells: E. coli BL21/DE3 (pET28b-mPTPB)
T1 sequence (I6WXK4 1-276): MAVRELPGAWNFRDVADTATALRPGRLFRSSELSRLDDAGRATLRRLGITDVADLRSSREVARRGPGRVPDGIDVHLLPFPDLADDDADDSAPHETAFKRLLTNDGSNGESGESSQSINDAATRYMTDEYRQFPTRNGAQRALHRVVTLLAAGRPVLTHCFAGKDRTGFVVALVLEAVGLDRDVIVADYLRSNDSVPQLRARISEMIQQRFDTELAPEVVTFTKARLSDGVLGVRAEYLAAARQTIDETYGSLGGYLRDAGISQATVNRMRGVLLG

mPTPA = mPTPA (Mycobacterium tuberculosis, UniProt P9WIA1); test: PTP selectivity panel: mPTPA; assay type: biochemical
[1] = test system: ERK1/2 phosphorylation in Raw264.7 cells expressing mPTPB; test: ERK phosphorylation in macrophage cells expressing mPTPB (western blot); assay type: cell-based, mouse; details: IFN-γ, L01Z08 especially at 120 and 240 nM
Procedure: As explained above, ERK phosphorylation is important in the cellular secretion pathway of IL-6. However, mPTPB blocks or inhibits the phosphorylation of ERK which reduces and potentially prevents IL-6 secretion altogether.
Raw264.7 mouse macrophages were cultured in Dulbecco's modified Eagle's medium (DMEM) supplemented with 10% FBS (Invitrogen), penicillin (50 units/mL), and streptomycin (50 μg/mL) under a humidified atmosphere containing 5% CO2 at 37° C. Transfected Raw264.7 cells (Vector, WT-mPTPB) were seeded in a 12-well plate at a density of 4×10^4 cells/well. The following day cells were treated with mPTPB inhibitor 213a for 1 hr, then stimulated with IFN-γ (200 U/ml) for 1 h. […]. Wash with ice-cold phosphate buffered saline, and lysed with lysis buffer on ice for 30 min. Cell lysate is then cleared by centrifuging at 13,000 rpm for 15 min. The phosphorylation of ERK1/2 and Akt was detected by western blotting.

[2] = test system: Akt phosphorylation in Raw264.7 cells expressing mPTPB; assay type: cell-based, mouse; details: macrophage cells expressing mPTPB, increasing concentrations

Sequence of mPTPA (P9WIA1 whole entry): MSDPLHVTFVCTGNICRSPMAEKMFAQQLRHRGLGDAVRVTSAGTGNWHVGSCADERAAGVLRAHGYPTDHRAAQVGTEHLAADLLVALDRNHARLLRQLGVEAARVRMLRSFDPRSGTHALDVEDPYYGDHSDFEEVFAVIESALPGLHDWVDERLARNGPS

## Cn1c(-c2ccccc2C(F)(F)F)c(C(=O)CCNC(=O)c2cc(Br)cc(Br)c2)c2cc(C(=O)O)c(O)cc21 [Compound 213a, 3-(3-(3,5-dibromobenzamido)propanoyl)-6-hydroxy-1-methyl-2-(2-(trifluoromethyl)phenyl)-1H-indole-5-carboxylic acid]
mPTPB
  more potent than parent compound 207a: 14 fold
  more selective than parent compound 207a: 43 fold
mPTPB; 1 μM, library 13 screened in situ
  In % @ 1 μM (mPTPB): 81%
mPTPB; kinetic analyses, Lineweaver-Burk plot
  mode of mPTPB inhibition: Non-competitive inhibitor; also recorded: reversible and noncompetitive inhibitor
mPTPB; pH 7.0, 25° C.
  Ki: 50 ± 2 nM
mPTPB; pNPP substrate, pH 7.0, 25° C., read-out: IC50 (μM) against mPTPB
  IC50: 0.079 ± 0.01 µM
mPTPB; panel of 11 PTPs
  selectivity for mPTPB over the other ten PTPs: over 90 fold
mPTPA
  IC50: 10900 ± 500 nM
[1]
  ERK phosphorylation / ERK1/2 activity: restore ERK1/2 activity; also recorded: increased the ERK activity
[2]
  AKT phosphorylation / Akt activation: blocks Akt activation; also recorded: decreased the Akt activity

— patent publication US9493436B2, “Tyrosine phosphatase inhibitors and uses thereof to modulate the activity of enzymes involved in the pathology of Mycobacterium tuberculosis” (priority 2011, dated 2016)
